In PMC6218115, “In Vitro Potency and Preclinical Pharmacokinetic Comparison of All-D-Enantiomeric Peptides Developed for the Treatment of Alzheimer’s Disease” (Journal of Alzheimer's Disease, 2018):
pIC50: −log10 of the molar value. Where two headings read alike, the source gives them in different places. Non-standard residues stand in square brackets, D forms with d. Residues, ends and D or L forms follow the SMILES beside them.

How the values were obtained:
Aβ1-42 = biological target: T1, Aβ1-42 (Homo sapiens, UniProt P05067); assay: Aβ aggregation assay (Thioflavin T); type: biochemical; details: for molar excess with regard to Aβ for complete inhibition of Aβ1-42 fibril formation: 10 μM Aβ1-42, ThT
T1 construct: Lyophilized Aβ1 - 42 was dissolved in the respective peptide solution; purchased Isoloid GmbH (recombinant) or Bachem AG (synthetic)
T1 sequence (P05067 672-713 limits assumed): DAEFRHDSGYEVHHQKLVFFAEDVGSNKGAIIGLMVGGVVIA
Experimental: The potencies of ANK6, tANK6, cANK6r, and D3 to inhibit Aβ1 - 42 aggregation was examined using Thioflavin T (ThT). For this purpose, a buffer solution composed of 20 mM sodium phosphate buffer (pH 7.4) including 50 mM sodium chloride, and 5μM ThT was prepared. Afterwards, ANK6, tANK6, cANK6r, or D3 were diluted in this solution, respectively, to final peptide concentrations between 0.3125 and 80μM (ANK6 and tANK6:0.3125, 0.625, 1.25, 2.5, 5, 10, 20μM; cANK6r: 1.25, 2.5, 5, 10, 20, 40, 80μM; D3:1.17, 2.34, 4.7, 9.4, 18.8, 37.5, 75μM).
The buffer solution only served as negative control (blank). Lyophilized Aβ1 - 42 was dissolved in the respective peptide solution to a final concentration of 10μM. D-peptide solutions with the highest concentration of the respective D-peptide containing all components, except of Aβ1 - 42, served as negative controls. Aβ1 - 42 solved in buffer solution without D-peptide served as positive control. 100μL of each solution were transferred into the wells (triplicates) of 96 well microplates (PS, black, non-binding from Greiner Bio-One, Germany) and fluorescence signals (excitationλ 440 nm, emissionλ 490 nm) were measured in a Polarstar Optima plate reader (BMG, Germany) at 37°C every 20 min for 70 h. Afterwards, the respective blank curves were subtracted from each aggregation curve to exclude background fluorescence. […] The half maximal inhibitory concentration (IC50 value) was determined by plotting the percent inhibition against the respective D-peptides’ concentrations. Datasets were fitted by nonlinear regression (one site – specific binding with Hill slope, GraphPad Prism 5).

[1] = Pharmacokinetic concentration-time profiles and parameters after i.v. and p.o. administration; type: in vivo, C57Bl/6N mice; details: mice; for Cmax, brain / Cmax, plasma: 3H-label LSC; for Cmax, plasma: 3 mice/time point; for AUC %ID,0 - 1440, plasma: non-compartmental analysis; for F (AUC %ID), oral bioavailability: p.o. 10 mg/kg (ANK6, tANK6) or 15 mg/kg (cANK6r) versus i.v. 3.3 mg/kg, plasma AUC %ID
Experimental: The pharmacokinetic profiles were investigated in 180 male C57Bl/6N mice aged 13-14 weeks, weighing about 27.4 g in average. Mice were ordered at Charles River (Germany) and housed at least one week under standard housing conditions (12/12 h light-dark cycle, approximately 22°C room temperature and 54% humidity; water and food available ad libitum) in the animal facility of the Forschungszentrum Jülich GmbH before the experiments were carried out. All animal experiments were approved by the Animal Protection Committee of the local government according to the German Protection of Animals Act (LANUV, North-Rhine-Westphalia, Germany, Az.84-02.04.2017.A029).
To determine the concentration-time profiles of ANK6, tANK6, and cANK6r in murine brain, plasma, liver, kidney, and cerebrospinal fluid (CSF) after i.v. and p.o. administration, mixed solutions of non-labelled and ^3H-labelled peptides were prepared. The administered solutions contained 1 mg/mL (i.v.) or 3 mg/mL (p.o.) of the respective D-peptide including small amounts of ^3H-labelled peptides (0.54μg/mL ^3H-ANK6, 1.79μg/mL ^3H-tANK6, or 0.98μg/mL ^3H-cANK6r). Doses were administered by body weight: i.v. 3.3 mg/kg, ANK6 & tANK6 p.o. 10 mg/kg, cANK6r p.o. 15 mg/kg. Three male C57Bl/6N mice aged 13-14 weeks were investigated per time point whereby individual outliers were excluded from further evaluation. Organs were harvested as follows: i.v. 5, 10, 30, 60, 120, 240, 360, 1080, 1440 min; p.o.: 10, 20, 30, 60, 120, 240, 360, 1080, 1440 min.
Animals whose CSF was not extracted were anesthetized with isoflurane (cp-pharma, Germany) inhalation approximately 2 min before each organ harvesting time point. Afterwards, blood was taken by cardiac puncture and the heparinized blood was centrifuged (3000 g, 5 min, 4°C) to get plasma. The plasma in the supernatant was separated and 1:1 diluted with PBS. The right brain hemisphere, 200 mg of the big liver lobe, and the right kidney were removed, weighed, and homogenized in 500μL PBS (Precellys Ceramic Kit 1.4 mm, Precellys 24, Bertin technologies SAS, France). 100μL of the diluted plasma, the homogenized brain, liver, or kidney (in triplicates), or 1–5μL (exactly determined) of the extracted CSF (extraction procedure see below, single determination) were mixed with 10 mL scintillation cocktail (Ultima Gold XR, PerkinElmer, USA). The mixture was incubated overnight (100 rpm, room temperature).
Animals whose CSF was extracted (organ harvesting time points: 60 min, 240 min, 1440 min) were i.p. anesthetized with ketamine/medetomidine approximately 20 min before each sampling time point. When the mouse was in deep narcosis, the cisterna magna was laid free and punctuated with a small capillary to extract about 5μL of CSF as described before. Afterwards, cardiac puncture, organ extractions, and sample preparations were performed as described above.
Quantification of the amount of ^3H-labelled D-peptides was performed with a LSC and the results (dpm/sample) were converted into mg/mL or % injected dose (% ID)/mL for plasma and for CSF, or in mg/g or % ID/g for brain, liver, and kidney as described before. Total peptide concentrations in the samples were back-calculated from the measured ^3H-labelled peptides’ radioactivity as described before [[20, 25, 26, 29]].
The determined peptide concentrations were plotted over time to allow for comparison of all peptides’ uptake into brain, plasma, liver, kidney, and CSF. Concentrations at 0 min were set to 0 % ID/mL or 0 % ID/g except for plasma concentrations after i.v. administration. There, concentrations were linearly back-extrapolated based on the first two measured time points (5 min, 10 min).
To calculate the pharmacokinetic parameters of ANK6, tANK6, and cANK6r for plasma and brain, concentration-time profiles were analyzed. […]

[2] = i.v. 3.3 mg/kg, back-extrapolated to 0 min
[3] = p.o. 10 mg/kg (ANK6, tANK6) or 15 mg/kg (cANK6r)

| Structure (SMILES) | molar excess with regard to Aβ for complete inhibition of Aβ1-42 fibril formation (Aβ1-42) | AUC %ID,0 - 1440, brain ([1]; i.v. 3.3 mg/kg) [min*% ID/g] | CL, terminal plasma clearance ([1]; i.v. 3.3 mg/kg) [mL/min/kg] | MRT, plasma ([1]; i.v. 3.3 mg/kg) [h] | t1/2, terminal half-life, plasma ([1]; i.v. 3.3 mg/kg) [h] | tmax, brain ([1]; i.v. 3.3 mg/kg) [h] | tmax, plasma ([1]; i.v. 3.3 mg/kg) [h] | λz, terminal elimination rate constant, plasma ([1]; i.v. 3.3 mg/kg) [min⁻¹] | Cmax, brain ([1]; i.v. 3.3 mg/kg) [% ID/g] | Cmax, plasma [1, 2] [% ID/mL] | AUC %ID,0 - 1440, plasma ([1]; i.v. 3.3 mg/kg) [min*% ID/mL] | AUC %ID,0 - 1440, brain [1, 3] [min*% ID/g] | CL, terminal plasma clearance [1, 3] [mL/min/kg] | MRT, plasma [1, 3] [h] | t1/2, terminal half-life, plasma [1, 3] [h] | tmax, brain [1, 3] [h] | tmax, plasma [1, 3] [h] | λz, terminal elimination rate constant, plasma [1, 3] [min⁻¹] | F (AUC %ID), oral bioavailability [1] [%] | Cmax, brain [1, 3] [% ID/g] | other results |
| --- | --- | --- | --- | --- | --- | --- | --- | --- | --- | --- | --- | --- | --- | --- | --- | --- | --- | --- | --- | --- | --- |
| CC[C@@H](C)[C@@H](NC(=O)[C@@H](CCCNC(=N)N)NC(=O)[C@@H](CCCCN)NC(=O)[C@H](N)CCCNC(=N)N)C(=O)N[C@H](CCCNC(=N)N)C(=O)N[C@H](CC(C)C)C(=O)N[C@@H](C(=O)N[C@@H](C(=O)N[C@H](CCCCN)C(=O)N[C@H](CCCCN)C(=O)N[C@H](CCCCN)C(=O)N[C@H](CCCNC(=N)N)C(N)=O)[C@H](C)O)C(C)C [ANK6] (H-[dR][dK][dR][dI][dR][dL][dV][dT][dK][dK][dK][dR]-NH2; N-terminus assumed) | two-fold molar excess | 35.8 | 32.0 | 3 | 15 | 0.083 | 0 | 0.00077 | 0.07 | 3.17 | 91.7 | 11.0 | 174.5 | 10 | 22 | 1 | 2 | 0.00054 | 11.8 | 0.01 | pIC50 (Aβ1-42): 5.44; reduction of the aggregation amplitude (Aβ1-42; equimolar concentration of peptide relative to Aβ1-42 (10 μM)): more than 97%; peptide concentration detected in the blood ([1]; 4 h after single oral administration of 10 mg/kg): 0.01 µM; CSF levels ([1]; about 60 min after both types of administration (i.v., p.o.)): Extraordinary high CSF levels; Cmax, plasma [1, 3]: 0.02 % ID/mL; AUC %ID,0 - 1440, plasma [1, 3]: 10.8 min*% ID/mL |
| CC[C@@H](C)[C@H]1NC(=O)[C@@H](CCCNC(=N)N)NC(=O)[C@@H](CCCCN)NC(=O)[C@@H](CCCNC(=N)N)NC(=O)[C@@H](CCCNC(=N)N)NC(=O)[C@@H](CCCNC(=N)N)NC(=O)[C@@H](CCCCN)NC(=O)[C@@H](CCCCN)NC(=O)[C@@H](CCCCN)NC(=O)[C@@H]([C@H](C)O)NC(=O)[C@@H](C(C)C)NC(=O)[C@@H](CC(C)C)NC(=O)[C@@H](CCCNC(=N)N)NC1=O [cANK6r] (cyclo([dR][dK][dR][dI][dR][dL][dV][dT][dK][dK][dK][dR][dR])) | about eight-fold molar excess | 85.6 | 18.4 | 2 | 18 | 0.083 | 0 | 0.00064 | 0.12 | 3.29 | 181.0 | 19.1 | 135.5 | 9 | 30 | 6 | 1 | 0.00039 | 9.9 | 0.02 | pIC50 (Aβ1-42; 10 μM Aβ1-42, 5 μM ThT, 20 mM sodium phosphate pH 7.4, 50 mM NaCl, 37°C, 70 h, triplicates, nonlinear regression, read-out: IC50, inhibition of Aβ1-42 aggregation into ThT-positive fibrils): 5.43; brain/plasma ratio ([1]; 24 h after administration, p.o.): 1.17; Cmax, plasma [1, 3]: 0.05 % ID/mL; AUC %ID,0 - 1440, plasma [1, 3]: 17.9 min*% ID/mL |
